Source: patent publication US12152240B2, “Permanent epigenetic gene silencing” (Ospedale San Raffaele S.R.L., priority 2014, dated 2024)

Assays:
Format in all cases: cell-based, human
[1] = tested on: B2M gene, HEK-293T cells; experiment: B2M, OAS1 and B2M locus gene expression in HEK-293T cells (RT-qPCR)
Excerpt: Remarkably, up to 80% of the cells treated with all the ATRs permanently lost B2M surface expression. In parallel experiments, we sorted the B2M-negative and the B2M-positive cells, and analysed them for surface expression of MHC-I molecules, which require B2M to be presented on the plasma membrane. […] Then we assessed if the three effector domains were capable of inducing permanent epigenetic silencing also when targeted to the B2M gene via the RNA-guided CRISPR/Cas9 system. To this aim, we fused in frame to a catalytically dead Cas9 (D10A+H840A; dCas9; amino acid sequence listed in Table 4) the KRAB, the DNMT3A or the DNMT3L effector domains (FIG. 13E; top drawings), and designed 11 guide RNAs (gRNAs; nucleotide sequences listed in Table 4) targeting the promoter region of the B2M gene (FIG. 13E; bottom schematic, arrows indicate the location of the CRISPR/dCas9 target sites). […] We then assessed if B2M silencing was resistant to IFN-γ treatment, a potent inducer of B2M expression (Vraetz, T. et al. (1999) Nephrol. Dial. Transplant. 14:2137-43; Gobin, S. J. et al. (2003) Blood 101:3058-64). […]
In order to assess if silencing induced by our ATRs was associated with the deposition of repressive epigenetic marks on the targeted gene, we analysed the epigenetic state of the B2M gene in wild-type and silenced cells. […]

[2] = tested on: eGFP-negative (silenced) AAVS1/TetO7 cells; experiment: 5-Aza treatment of eGFP-silenced AAVS1/TetO7 cells (flow cytometry); conditions: 7 days
Experimental: In order to understand if DNA methylation was necessary to maintain the repressive state induced by tetR:D3A, the eGFP-cells from the doxy-conditions in FIG. 2D were treated with either 5-Aza-2′-deoxycytidine (5-Aza) or vehicle (i.e. Dimethyl Sulfoxide, DMSO) and then analysed by flow cytometry to measure eGFP expression. 5-Aza is a cytosine analogue that after becoming incorporated into DNA is recognised by DNA methyltransferase as a substrate, establishing a covalent bond that, contrary to cytosine, is not resolved, thus blocking DNMT activity (Issa, J. P. et al. (2005) Nat. Rev. Drug Discov. Suppl. S6-7).
To test activity of the ATRs, the reporter cell lines were transduced with the ATR-expressing Bid.LV at a MOI of 10, or transfected with plasmids or in vitro transcribed mRNAs expressing the ATRs (4D-Nucleofector™ System; Lonza) according to the manufacturer's instruction for K-562, U937 and NIH/3T3, or using the pulse program EW-113 and the SF solution for B-lymphoblastoid cells. […] The AZA-containing media was replaced every day, and the cells were analysed by flow cytometry at day 4 and 7 after treatment. […] The IFN-γ-containing media was replaced every day, and the cells were analysed by flow cytometry at day 2 and 4 after treatment. […] Two weeks after plating, colonies were counted and identified according to morphological criteria and analysed by flow cytometry.

[3] = tested on: B2M gene promoter region, HEK-293T cells; experiment: B2M silencing in HEK-293T cells (flow cytometry); conditions: day 7 upon AZA treatment
Excerpt: In order to assess if the results obtained with the eGFP reporter system could also be translated to an endogenous gene embedded in its natural epigenetic context, we generated custom-made TALEs targeting the promoter region of the B2-Microglobulin (B2M) gene (the amino acid sequences of these TALEs and the nucleotide sequences of their corresponding binding sites are listed in Table 3), and fused these TALEs to the KRAB, DNMT3A and DNMT3L effector domains (for a schematic of the system refer to FIG. 13A). The spacer length between the first and the second, or between the second and the third TALE is 1 or 20 bp, respectively. We then co-transfected HEK-293T cells with the plasmids encoding for these novel ATRs and analysed the cells by flow cytometry for B2M expression.
Remarkably, up to 80% of the cells treated with all the ATRs permanently lost B2M surface expression. In parallel experiments, we sorted the B2M-negative and the B2M-positive cells, and analysed them for surface expression of MHC-I molecules, which require B2M to be presented on the plasma membrane. […] Then we assessed if the three effector domains were capable of inducing permanent epigenetic silencing also when targeted to the B2M gene via the RNA-guided CRISPR/Cas9 system. […]
We then assessed if these findings also held true with ATRs based on custom-made DNA binding domains. […]

With “IFN-γ: a potent inducer of B2M expression” the “B2M expression upon IFN-γ treatment (transcriptional and protein level)” value ([1]; 500 U/mL IFN-γ, wild-type or sorted B2M-negative cells) was “significantly upregulated B2M expression” and the “upregulation of OAS1 gene expression” value ([1]; IFN-γ treatment, all cell types tested (wild-type and B2M-negative)) was over 100 fold.

With `Nc1ncn([C@H]2C[C@H](O)[C@@H](CO)O2)c(=O)n1` [5-Aza, 5-Aza-2′-deoxycytidine] the “eGFP expression after 5-Aza treatment” value ([2]; eGFP- cells silenced with tetR:D3A, 1 μM) was “full reactivation of eGFP expression”, the “eGFP expression after 5-Aza treatment” value ([2]; eGFP-negative sorted cells from tetR:K/tetR:D3A conditions) was “completely reactivated eGFP expression” and the “B2M expression after AZA treatment of previously silenced cells” value [3] was “re-expression of the B2M gene”.
